Test results from patent US9375419B1 (priority 2014, dated 2016).
pEC50: −log10 of the molar value.

Key:
[1] = tested on: human Norovirus replicon (GT1, HG23 cell line); assay: Primary anti-Norovirus assay, RNA hybridization (replicon); details: for Sl50 - CC50/EC50 / Sl90 - CC50/EC90: RNA hybridization (replicon), HG23 cells
[2] = tested on: human Norovirus replicon (GT1, HG23 cell line); assay: Secondary anti-Norovirus assay, quantitative polymerase chain reaction (replicon); details: for Sl50 - CC50/EC50 / Sl90 - CC50/EC90: quantitative PCR (replicon), HG23 cells
[3] = tested on: Herpes Simpex Virus 1; type: cell-based
[4] = Cytotoxicity by neutral red dye uptake, primary assay; details: human
[5] = tested on: Adenorovirusirus-5; type: cell-based
[6] = tested on: Hepatitis C virus; type: cell-based
[7] = tested on: tacaribe virus; type: cell-based
[8] = tested on: Venezuelan equine encephalalitis virus; type: cell-based
[9] = tested on: Yellow fever virus; type: cell-based
[10] = tested on: Vaccina virus; type: cell-based
[11] = Neutral red (toxicity), secondary assay; details: human
[12] = tested on: Hepatitis B virus; type: cell-based
[13] = tested on: Rift valley fever virus; type: cell-based
[14] = tested on: polio virus; type: cell-based
[15] = tested on: Human cytomegalovirus; type: cell-based
[16] = tested on: Herpes Simpex Virus 2; type: cell-based

For `C[C@@]1(O)[C@H](O)[C@@H](CO)O[C@H]1n1ccc(N)nc1=O` [2′C-methyl cytidine, reference compound], the “Sl50 - CC50/EC50” value [1] was greater than 48, the “Sl90 - CC50/EC90” value [1] was greater than 16 and the “Sl50 - CC50/EC50” value [2] was greater than 50. For the same molecule, the “Sl90 - CC50/EC90” value [2] was greater than 17.

For `COc1c(C)cnc(Cn2cnc3c(Cl)cc(N)cc32)c1C` [Compound 1, 4-Chloro-1-((4-methoxy-3,5-dimethylpyridin-2-yl)methyl)-1H-benzo[d]imidazo-6-amine], the antiviral activity [3] was “did not have activity”, the CC50 at 3 day [4] was greater than 100 µM and the pEC50 ([1]; Norovirus, GT1, HG23, in Homo sapiens, 72 h, read-out: EC50 - compound concentration that reduces viral replication by 50%) was 6.21. For the same molecule, the EC90 ([1]; Norovirus, GT1, HG23, in Homo sapiens, 72 h, read-out: EC90 - compound concentration that reduces viral replication by 90%) was 7.5 µM, the “Sl50 - CC50/EC50” value [1] was greater than 162 and the “Sl90 - CC50/EC90” value [1] was greater than 13. For the same molecule, the “activity against Norovirus in the primary screen” value ([1]; primary screen) was “active”, the antiviral activity [5] was “did not have activity” and the antiviral activity [6] was “did not have activity”. For the same molecule, the pEC50 ([2]; Norovirus, GT1, HG23, in Homo sapiens, read-out: EC50 - compound concentration that reduces viral replication by 50%) was 5.85, the EC90 ([2]; Norovirus, GT1, HG23, in Homo sapiens, read-out: EC90 - compound concentration that reduces viral replication by 90%) was 8.5 µM and the “Sl50 - CC50/EC50” value [2] was greater than 36. The “Sl90 - CC50/EC90” value [2] was greater than 6, the “activity against Norovirus, data confirmed in the secondary assay” value ([2]; secondary assay) was “confirmed” and the antiviral activity [7] was “did not have activity”. For the same molecule, the antiviral activity [8] was “did not have activity”, the antiviral activity [9] was “did not have activity” and the antiviral activity [10] was “did not have activity”. For the same molecule, the CC50 at 3 day [11] was greater than 50 µM, the antiviral activity [12] was “did not have activity” and the antiviral activity [13] was “did not have activity”. The antiviral activity [14] was “did not have activity”, the antiviral activity [15] was “did not have activity” and the antiviral activity [16] was “did not have activity”.
